This is an account of results in patent publication US20030225002A1, “Co-therapy for the treatment of migraine comprising anticonvulsant derivatives and anti-migraine agents” (priority 2002, published 2003).

Counter-ions that a name gives are not always drawn.

Holding throughout (format): in vivo, human
The test system of data set [1] is refractory migraine (migraine without aura). Nature of the data set: Case Study 2: refractory migraine without aura. The conditions noted are these: for Response of refractory migraine to earlier therapy: CORGARD in combination with PROZAC or CELEXA or trazodone. As for the experimental part:
The patient was a person with a lifelong history of refractory migraine (migraine without aura), averaging 8 migraines per month. […] The patient was started on topiramate at 25 mg/day, with dosage increasing to 75 mg/day. Simultaneously, the beta-blocker, CORGARD dosage was decreased to 20 mg/day, with CELEXA at 20 mg/day also continued.

The subject of data set [2] is severe refractory migraine with and without aura. Put plainly: Case Study 3: severe refractory migraine with and without aura. How it is done:
The patient was a person with a twenty-year history of severe refractory migraine with and without aura. […] The patient was started on topiramate at 50 mg/day increasing to 100 mg in the morning and 100 mg in the evening, in combination with INDERAL at 160 mg/day. […] After about 6 months, the patient was prescribed EFFEXOR XR (vanlafaxine HCl) at 37 mg/day, an increased topiramate dose of 125 mg in the morning and 150 mg in the evening, and 160 mg/day INDERAL.

For data set [3], the system named is persistent daily headache with migraine features. Nature of the data set: Case Study 1: persistent daily headache with migraine features. The conditions noted are these: one patient; for Response of persistent daily headache to earlier therapy: before topiramate. From the text: The patient was a person with persistent daily headache with migraine features.

As for `Cc1cc2nc3c(=O)[nH]c(=O)nc-3n(C[C@H](O)[C@H](O)[C@H](O)CO)c2cc1C` [riboflavin], the Effect of supplementation result in data set [1] (400 mg/day) is recorded as “no improvement”.
For the molecule `CCCC(CCC)C(=O)O` [DEPAKOTE, valproic acid], in data set [2] (earlier therapy), the “Response of severe refractory migraine” value is on record as “modest symptomatic response” and the “Tolerability, reason for discontinuation” value is given as “discontinued due to weight gain”.
For `CNS(=O)(=O)Cc1ccc2[nH]cc(CCN(C)C)c2c1` [sumatriptan], the “Response of severe refractory migraine” value in data set [2] (repeated frequent use) is “symptomatic response”.
Consider `CNS(=O)(=O)CCc1ccc2[nH]cc(C3CCN(C)CC3)c2c1` [naratriptan], for which, in data set [3], the “Response of severe headaches” value is listed as “did however respond”.
With `CNCCC=C1c2ccccc2CCc2ccccc21` [nortriptyline], the “Response of persistent daily headache to earlier therapy” value (“Response of persistent daily headache” below) in data set [3] is reported as “failed to respond”.
For the molecule `CC(C)NCC(O)COc1cccc2ccccc12.Cl` (stereo not shown) [INDERAL, propranolol HCl], in data set [2] (INDERAL at 120 mg/day in combination with tricyclic antidepressants), the “Response of severe refractory migraine” value was “Only modest response”. Further, the “Response of persistent daily headache” value in data set [3] was “failed to respond”.
Consider `CC(C)(C)NCC(O)COc1cccc2c1CC(O)C(O)C2` (stereo not shown) [CORGARD, nadolol], for which the “Response of refractory migraine to earlier therapy” value (shortened to “Response of refractory migraine”) in data set [1] is “no response”.
On to `CN1CCC(=C2c3ccccc3C=Cc3ccccc32)CC1` [PERIACTIN, cyproheptadine HCl], for which the “Response of persistent daily headache” value in data set [3] is given as “failed to respond”.
For the molecule `O=c1n(CCCN2CCN(c3cccc(Cl)c3)CC2)nc2ccccn12` [trazodone], the “Response of refractory migraine” value in data set [1] is “no response”.
Take `CNCCC(Oc1ccc(C(F)(F)F)cc1)c1ccccc1` (stereo not shown) [PROZAC, fluoxetine HCl]: the “Response of refractory migraine” value in data set [1] is “no response”.
Same read-out and setting: next, `CN(C)CCCC1(c2ccc(F)cc2)OCc2cc(C#N)ccc21` (stereo not shown) [CELEXA, citalopram HCl]: “no response”.
